Results published in patent publication US9585858B2, “Pharmaceutical composition containing 13 triglycerides, and preparations and use thereof” (ZHEJIANG KANGLAITE GROUP CO., LTD., priority 2014, dated 2017).

How the values were obtained:
[1] = tested on: NK cells; assay: Activity of NK cells in mice in vitro (inhibition of 3H-TdR incorporation, YAC-1 target cells); assay type: cell-based, C57BL/6 mice; conditions: for CPM (x ± SD), activity of NK cells in mice in vitro: splenocytes:YAC-1 100:1, 24 h
Experimental: Method: The activity of NK cells were detected by the inhibition on ^3H-TdR incorporation.
Spleens were picked up from C57BL/6 mice in aseptic condition. Splenocytes, as effector cells, were adjusted to 1×10^6 cells/ml. YAC-1 cells, target cells, which have been cultured for 24 h, were adjusted to 1×10^4 cells/ml. The cells were added into wells of a 96 well microplate (100 μl/well). The experiment groups were as follows: the injection of the invention in four concentrations, lentinan (positive control group) in four concentrations, corresponding solvent (blank control I) and medium (blank control II). To each well of a 96 well microplate were added Splenocytes: YAC-1 cells=100: 1 (100 μl), test sample (100 μl) and ^3H-TdR 0.5 μci/well. After being incubated in a 37° C. incubator under 5% CO2 for 24 h, cells were collected, and CPM values were determined. The specific percentage inhibition (Pi), indicating the activity of NK cells, was calculated according to the formula: Pi=(1−CPMExp./CPMcont.)×100%

[2] = tested on: NK cells; assay: Activity of NK cells in mice bearing cancer; assay type: in vivo, DBA/2 mice; conditions: 20 mg/kg, iv × 7
Experimental: Each of 60 DBA/2 mice was inoculated subcutaneously with 1×10^4 L1210 leukemia cells of mice. Next day, the mice were grouped randomly into 6 groups (10 mice per group): Lentinan 20 mg/kg, the injection of the invention (6.25 ml/kg, 12.5 ml/kg and 25 ml/kg), solvent control and NS control. Animals were administered, i.v., for 7 days, then sacrificed. Spleens were picked up in aseptic condition. Splenocytes were prepared and adjusted into 1×10^6/ml. The activity of NK cells was detected by using the inhibition on ^3H-TdR incorporation. To wells of a 96 well microplate were added splenocytes cells (effector cells) 100 μl/well, YAC-1 cells (target cells, 1×10^4 cells/ml) 100 μl/well and ^3H-TdR 0.5 μci/well, in triplicate. After being incubated in a 37° C. incubator under 5% CO2 for 24 h, cells were collected, and CPM values were determined. The specific percentage inhibition (Pi), indicating the activity of NK cells, was calculated according to the above formula.

[3] = tested on: Splenocytes; assay: Splenic lymphopoiesis induced by ConA in mice in vitro (3H-TdR incorporation); assay type: cell-based, C57BL/6 mice
Experimental: Spleens were picked up from C57BL/6 mice in aseptic condition. Splenocytes were separated and the concentration of cells was adjusted to 1×10^7 cells/ml with RPMI 1640+15% FCS medium. The experiment groups were as follows: the injection of the invention in four concentrations, lentinan (positive control group) in four concentrations, corresponding solvent (blank control I) and medium (blank control II). 100 μl Cells, 100 μl solution of drug/control and 50 μl ConA were added in each well in triplicate. The 96 well microplate was incubated in a 37° C. incubator under 5% CO2 for 48 h. ^3H-TdR (0.5 μci/well) was added and the incubation was continued for 20 h. Cells were collected, and CPM values were determined in a liquid scintillation counter and compared with control groups. It is shown in the results (table 3) that the injection of the invention, as same as lentinan, has obviously facilitated the splenic lymphopoiesis in mice in vitro and the effect is linear dependent to the concentration.

[4] = tested on: IL-2; assay: Production of IL-2 in mice suffering from L1210 leukemia (CTLL cell 3H-TdR incorporation); assay type: in vivo, DBA/2 mice; conditions: 20 mg/kg, iv × 7
Experimental: Each of 60 DBA/2 mice was inoculated subcutaneously with 1×10^4 L1210 leukemia cells of mice. Next day, the mice were grouped randomly into 6 groups (10 mice per group): Lentinan 20 mg/kg, the injection of the invention (6.25 ml/kg, 12.5 ml/kg and 25 ml/kg), solvent control and NS control. Animals were administered, i.v., for 7 days, then sacrificed. Spleens were picked up in aseptic condition. Splenocytes were prepared and adjusted into 1×10^7/ml. To each well of a 24 well plate were added splenocytes cells (2 ml) and Con A (5 μg/ml). After the plate was incubated in a 37° C. incubator under 5% CO2 for 24 h, the supernate was collected. The activity of IL-2 was determined in IL-2 dependent CTLL cell strain by using the method of ^3H-TdR incorporation.

[5] = tested on: mice bearing L1210 leukemia cells; assay: Splenic lymphopoiesis in mice bearing L1210 leukemia cells; assay type: in vivo, DBA/2 mice; conditions: 20 mg/kg, iv × 7
Experimental: Each of 60 DBA/2 mice was inoculated subcutaneously with 1×10^4 L1210 leukemia cells of mice. Next day, the mice were grouped randomly into 6 groups (10 mice per group): Lentinan 20 mg/kg, the injection of the invention (6.25 ml/kg, 12.5 ml/kg and 25 ml/kg), solvent control and NS control. Animals were administered, i.v., for 7 days, then sacrificed. Spleens were picked up in aseptic condition. Splenocytes were counted and adjusted into 1×10^7/ml. Cells (100 μl/well) and medium (100 μl/well) were added into wells of a 96 well microplate in triplicate. The 96 well microplate was incubated in a 37° C. incubator under 5% CO2 for 48 h. Then, ^3H-TdR (0.5 μci/well) was added and the incubation was continued for 20 h. Cells were collected, and CPM values were determined and compared with control groups. […] Lentinan has also shown immuno-enhancement effect.

Lentinan
Pi % (specific percentage inhibition, activity of NK cells) in vitro ([1]; 100 μl (1:1)): 33.5%
CPM (x ± SD), activity of NK cells in mice in vitro ([1]; 100 μl (1:1)): 8130 ± 930 CPM
Pi % (specific percentage inhibition, activity of NK cells) in vitro ([1]; 100 μl (1:2)): 35.5%
CPM (x ± SD), activity of NK cells in mice in vitro ([1]; 100 μl (1:2)): 7892 ± 995 CPM
Pi % (specific percentage inhibition, activity of NK cells) in vitro ([1]; 100 μl (1:4)): 54.5%
CPM (x ± SD), activity of NK cells in mice in vitro ([1]; 100 μl (1:4)): 5544 ± 85 CPM
Pi % (specific percentage inhibition, activity of NK cells) in vitro ([1]; 100 μl (stock solution)): 29.5%
CPM (x ± SD), activity of NK cells in mice in vitro ([1]; 100 μl (stock solution)): 8625 ± 1135 CPM
CPM (x ± SD), activity of NK cells in mice bearing cancer [2]: 5660 ± 260 CPM
Pi (%), activity of NK cells in mice bearing cancer [2]: 54.5%
CPM (x ± SD), splenic lymphopoiesis in mice in vitro ([3]; 100 μl (1:1)): 7700 ± 747 CPM
CPM (x ± SD), splenic lymphopoiesis in mice in vitro ([3]; 100 μl (1:2)): 11025 ± 1133 CPM
CPM (x ± SD), splenic lymphopoiesis in mice in vitro ([3]; 100 μl (1:4)): 11555 ± 1279 CPM
CPM (x ± SD), splenic lymphopoiesis in mice in vitro ([3]; 100 μl (stock solution)): 7420 ± 957 CPM
CPM (x ± SD), production of IL-2 in mice suffering from L1210 leukemia [4]: 2750 ± 123 CPM
CPM (x ± SD), splenic lymphopoiesis in mice bearing L1210 leukemia cells [5]: 7410 ± 770 CPM
